Measurements reported in ChEMBL document CHEMBL5390242, “Design, Synthesis, and Antitumor Efficacy of Substituted 2-Amino[1,2,4]triazolopyrimidines and Related Heterocycles as Dual Inhibitors for Microtubule Polymerization and Janus Kinase 2” (J Med Chem, 2023).
Activity calls are given as the source filed them. No cut-off for these calls is given here.

Columns and labels:
[1] = molecular target: T1, Tyrosine-protein kinase JAK2 (Homo sapiens, UniProt O60674); test: Inhibition of JAK2 (unknown origin) using Poly-(Glu,Tyr 4:1) peptide as substrate at 1 uM in presence of ATP by ADP-Glo reagent based assay relative to control
T1 sequence (O60674 whole entry): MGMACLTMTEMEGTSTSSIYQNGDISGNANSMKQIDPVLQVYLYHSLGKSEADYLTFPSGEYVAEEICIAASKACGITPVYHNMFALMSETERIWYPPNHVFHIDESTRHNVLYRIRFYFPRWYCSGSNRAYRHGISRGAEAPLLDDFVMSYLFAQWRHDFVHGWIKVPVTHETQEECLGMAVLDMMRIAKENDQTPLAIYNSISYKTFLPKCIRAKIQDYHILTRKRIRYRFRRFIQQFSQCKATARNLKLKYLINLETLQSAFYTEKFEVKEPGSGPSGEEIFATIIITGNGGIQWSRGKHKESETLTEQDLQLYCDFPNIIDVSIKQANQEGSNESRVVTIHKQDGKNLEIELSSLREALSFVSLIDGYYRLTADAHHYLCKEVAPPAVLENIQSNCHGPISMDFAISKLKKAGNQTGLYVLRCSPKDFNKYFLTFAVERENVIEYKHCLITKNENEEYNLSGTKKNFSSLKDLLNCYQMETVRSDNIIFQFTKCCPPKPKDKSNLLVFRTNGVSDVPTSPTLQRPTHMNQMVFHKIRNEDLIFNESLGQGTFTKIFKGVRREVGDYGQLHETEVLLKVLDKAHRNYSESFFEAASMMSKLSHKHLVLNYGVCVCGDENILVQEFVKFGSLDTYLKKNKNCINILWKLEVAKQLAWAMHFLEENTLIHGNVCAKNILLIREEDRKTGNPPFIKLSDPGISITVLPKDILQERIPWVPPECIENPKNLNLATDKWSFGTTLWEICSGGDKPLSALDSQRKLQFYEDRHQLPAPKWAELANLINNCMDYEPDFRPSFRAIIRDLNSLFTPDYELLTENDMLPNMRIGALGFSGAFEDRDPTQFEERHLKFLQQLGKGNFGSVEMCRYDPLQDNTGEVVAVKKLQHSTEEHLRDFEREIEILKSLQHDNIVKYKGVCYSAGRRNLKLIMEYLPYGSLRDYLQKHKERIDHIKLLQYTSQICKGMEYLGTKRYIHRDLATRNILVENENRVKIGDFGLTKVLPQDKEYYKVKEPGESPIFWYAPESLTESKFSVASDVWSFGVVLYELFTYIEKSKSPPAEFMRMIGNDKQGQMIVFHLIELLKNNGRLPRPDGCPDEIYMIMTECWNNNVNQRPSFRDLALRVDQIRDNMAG

[2] = tested on: A549; test: Induction of apoptosis in human A549 cells assessed as late apoptotic cells at 50 nM incubated for 24 hrs by Annexin V-FITC/PI staining based flow cytometry (reference value: 1.72 %); assay type: functional
[3] = tested on: BXPC-3; test: Antiproliferative activity against human BXPC-3 cells assessed as cell growth inhibition incubated for 48 hrs by MTT assay; assay type: functional, cell-based; details: BXPC-3, 48 h
[4] = tested on: HT-29; test: Antiproliferative activity against human HT-29 cells assessed as cell growth inhibition incubated for 48 hrs by MTT assay; assay type: functional, cell-based; details: HT-29, 48 h
[5] = tested on: PC-3; test: Antiproliferative activity against human PC-3 cells assessed as cell growth inhibition incubated for 48 hrs by MTT assay; assay type: functional, cell-based; details: PC-3, 48 h
[6] = Cytotoxicity against human L02 cells assessed as cell growth inhibition incubated for 48 hrs by MTT assay; assay type: toxicity, cell-based
[7] = Antiproliferative activity against Chinese hamster CHO-K1 cells assessed as cell growth inhibition incubated for 48 hrs by MTT assay; assay type: toxicity, cell-based, Cricetulus griseus
[8] = tested on: A549; test: Induction of apoptosis in human A549 cells assessed as necrotic cells at 50 nM incubated for 24 hrs by Annexin V-FITC/PI staining based flow cytometry (reference value: 0.67 %); assay type: functional
[9] = Antiproliferative activity against Chinese hamster CHO cells assessed as cell growth inhibition incubated for 48 hrs by MTT assay; assay type: toxicity, cell-based, Cricetulus griseus
[10] = tested on: A549; test: Induction of mitochondrial membrane potential loss in human A549 cells by measuring red fluorescence at 50 nM incubated for 16 hrs by JC-1 staining based flow cytometry analysis (reference value: 99.3 %); assay type: functional
[11] = tested on: A549; test: Induction of mitochondrial membrane potential loss in human A549 cells by measuring green fluorescence at 50 nM incubated for 16 hrs by JC-1 staining based flow cytometry analysis (reference value: 0.7 %); assay type: functional
[12] = tested on: A549; test: Induction of apoptosis in human A549 cells assessed as early apoptotic cells at 50 nM incubated for 24 hrs by Annexin V-FITC/PI staining based flow cytometry (reference value: 4.61 %); assay type: functional
[13] = Cytotoxicity against human HaCaT cells assessed as cell growth inhibition incubated for 48 hrs by MTT assay; assay type: toxicity, cell-based
[14] = tested on: MCF7; test: cells; details: Homo sapiens, MCF7, 48 h
Description: Antiproliferative activity against human MCF7 cells assessed as cell growth inhibition incubated for 48 hrs by MTT assay

[15] = tested on: A549; test: Induction of apoptosis in human A549 cells assessed as viable cells at 50 nM incubated for 24 hrs by Annexin V-FITC/PI staining based flow cytometry (reference value: 93 %); assay type: functional; details: read-out: Activity
[16] = tested on: HepG2; test: Cytotoxicity against human HepG2 cells assessed as cell growth inhibition incubated for 48 hrs by MTT assay; assay type: functional, cell-based; details: HepG2, 48 h
[17] = tested on: COLO 205; test: Cytotoxicity against human COLO 205 cells assessed as cell growth inhibition incubated for 48 hrs by MTT assay; assay type: functional, cell-based; details: COLO 205, 48 h
[18] = tested on: CWR22R; test: Cytotoxicity against human 22Rv1 cells assessed as cell growth inhibition incubated for 48 hrs by MTT assay; assay type: functional, cell-based; details: 22Rv1, 48 h
[19] = Cytotoxicity against human ARPE-19 cells assessed as cell growth inhibition incubated for 48 hrs by MTT assay; assay type: toxicity, cell-based
[20] = tested on: A549; test: Antiproliferative activity against human A549 cells assessed as cell growth inhibition incubated for 48 hrs by MTT assay; assay type: functional, cell-based; details: A549, 48 h
[21] = tested on: HCT-8; test: Antiproliferative activity against human HCT-8 cells assessed as cell growth inhibition incubated for 48 hrs by MTT assay; assay type: functional, cell-based; details: HCT-8, 48 h
[22] = tested on: A549; test: Induction of apoptosis in human A549 cells assessed as late apoptotic cells at 500 nM incubated for 24 hrs by Annexin V-FITC/PI staining based flow cytometry (reference value: 1.72 %); assay type: functional
[23] = tested on: A549; test: Induction of mitochondrial membrane potential loss in human A549 cells by measuring green fluorescence at 500 nM incubated for 16 hrs by JC-1 staining based flow cytometry analysis (reference value: 0.7 %); assay type: functional
[24] = tested on: HeLa; test: Antiproliferative activity against human HeLa cells assessed as cell growth inhibition incubated for 48 hrs by MTT assay; assay type: functional, cell-based
[25] = molecular target: T1, Tyrosine-protein kinase JAK2; test: Inhibition of JAK2 (unknown origin) using Poly-(Glu,Tyr 4:1) peptide as substrate in presence of ATP by ADP-Glo reagent based assay
[26] = tested on: A2780/Taxol; test: Antiproliferative activity against human A2780T cells assessed as cell growth inhibition incubated for 48 hrs by MTT assay; assay type: functional, cell-based
[27] = Metabolic stability in mouse liver microsomes assessed as half life incubated for 10 mins in presence of NADPH by LC-MS/MS analysis; assay type: ADME, Microsome
[28] = tested on: A549; test: Induction of apoptosis in human A549 cells assessed as viable cells at 500 nM incubated for 24 hrs by Annexin V-FITC/PI staining based flow cytometry (reference value: 93 %); assay type: functional; details: read-out: Activity
[29] = tested on: NCI/ADR-RES; test: cells; details: Homo sapiens, 48 h
Description: Antiproliferative activity against human MCF7ADR cells assessed as cell growth inhibition incubated for 48 hrs by MTT assay

[30] = Antiproliferative activity against human A549/DDP cells assessed as cell growth inhibition incubated for 48 hrs by MTT assay; assay type: functional, cell-based
[31] = tested on: A2780; test: Antiproliferative activity against human A2780 cells assessed as cell growth inhibition incubated for 48 hrs by MTT assay; assay type: functional, cell-based; details: A2780, 48 h
[32] = molecular target: Tyrosine-protein kinase JAK1 (Homo sapiens, UniProt P23458); test: Inhibition of JAK1 (unknown origin) using Poly-(Glu,Tyr 4:1) peptide as substrate in presence of ATP by ADP-Glo reagent based assay
Sequence of Tyrosine-protein kinase JAK1 (P23458 whole entry): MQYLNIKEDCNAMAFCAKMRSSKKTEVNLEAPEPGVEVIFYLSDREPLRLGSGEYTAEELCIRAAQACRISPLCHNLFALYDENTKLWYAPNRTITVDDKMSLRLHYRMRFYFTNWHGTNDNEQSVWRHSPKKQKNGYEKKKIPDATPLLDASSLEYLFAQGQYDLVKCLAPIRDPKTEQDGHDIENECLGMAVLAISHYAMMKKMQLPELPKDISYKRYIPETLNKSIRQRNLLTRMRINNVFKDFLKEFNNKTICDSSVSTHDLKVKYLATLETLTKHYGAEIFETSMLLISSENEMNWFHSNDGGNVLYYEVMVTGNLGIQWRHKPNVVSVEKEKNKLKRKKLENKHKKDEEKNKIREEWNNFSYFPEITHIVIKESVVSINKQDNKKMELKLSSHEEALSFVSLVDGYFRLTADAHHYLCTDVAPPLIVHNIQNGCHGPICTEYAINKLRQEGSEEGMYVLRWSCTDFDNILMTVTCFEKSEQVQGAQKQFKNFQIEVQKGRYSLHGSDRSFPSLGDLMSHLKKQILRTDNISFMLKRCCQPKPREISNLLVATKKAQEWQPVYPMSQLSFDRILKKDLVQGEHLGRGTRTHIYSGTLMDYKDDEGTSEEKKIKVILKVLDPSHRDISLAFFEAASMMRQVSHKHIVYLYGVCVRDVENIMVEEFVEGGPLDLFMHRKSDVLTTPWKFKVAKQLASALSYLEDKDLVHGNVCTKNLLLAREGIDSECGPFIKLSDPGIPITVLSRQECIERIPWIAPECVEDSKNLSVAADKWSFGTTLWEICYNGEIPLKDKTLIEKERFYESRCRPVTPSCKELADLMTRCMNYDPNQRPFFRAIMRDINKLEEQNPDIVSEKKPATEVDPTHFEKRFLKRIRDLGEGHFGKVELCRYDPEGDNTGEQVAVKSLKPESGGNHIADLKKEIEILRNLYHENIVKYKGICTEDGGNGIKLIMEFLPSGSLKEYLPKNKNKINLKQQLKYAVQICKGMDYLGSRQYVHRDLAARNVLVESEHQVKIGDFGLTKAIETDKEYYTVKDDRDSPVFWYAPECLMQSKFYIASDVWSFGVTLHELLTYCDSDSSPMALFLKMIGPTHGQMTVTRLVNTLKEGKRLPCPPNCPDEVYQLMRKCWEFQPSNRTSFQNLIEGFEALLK

[33] = tested on: A549; test: Induction of apoptosis in human A549 cells assessed as necrotic cells at 500 nM incubated for 24 hrs by Annexin V-FITC/PI staining based flow cytometry (reference value: 0.67 %); assay type: functional
[34] = tested on: A549; test: Induction of apoptosis in human A549 cells assessed as early apoptotic cells at 500 nM incubated for 24 hrs by Annexin V-FITC/PI staining based flow cytometry (reference value: 4.61 %); assay type: functional
[35] = Antiproliferative activity against human HCT-8/VCR cells assessed as cell growth inhibition incubated for 48 hrs by MTT assay; assay type: functional, cell-based
[36] = tested on: KP-4; test: Antiproliferative activity against human KP-4 cells assessed as cell growth inhibition incubated for 48 hrs by MTT assay; assay type: functional, cell-based; details: KP-4, 48 h
[37] = tested on: A549; test: Induction of mitochondrial membrane potential loss in human A549 cells by measuring red fluorescence at 500 nM incubated for 16 hrs by JC-1 staining based flow cytometry analysis (reference value: 99.3 %); assay type: functional
[38] = AUC (0 to t) in CD-1 mouse at 13 mg/kg,ip measured upto 24 hrs by HPLC-MS/MS analysis; assay type: ADME, organism-based; parameters: time < 24 hrs, dose 13 mg/kg, route ip; details: in vivo
[39] = Half life in CD-1 mouse at 13 mg/kg,ip measured upto 24 hrs by HPLC-MS/MS analysis; assay type: ADME, organism-based; details: in vivo
[40] = AUC (0 to infinity) in CD-1 mouse at 13 mg/kg,ip measured upto 24 hrs by HPLC-MS/MS analysis; assay type: ADME, organism-based; parameters: time < 24 hrs, dose 13 mg/kg, route ip; details: in vivo
[41] = tested on: A549; test: Antitumor activity against human A549 cells xenografted in Balb/c mouse assessed as reduction in tumor weight at 50 mg/kg,ip administration measured after 31 days; assay type: functional; parameters: scale not given: the % may be the effect or the level left; details: time 31 day
[42] = tested on: A549; test: Antitumor activity against human A549 cells xenografted in Balb/c mouse assessed as increase in tumor necrotic cells at 50 mg/kg,ip administration measured after 31 days by Hematoxylin-eosin staining based microscopy; assay type: functional, organism-based; details: time 31.0 day
[43] = Tmax in CD-1 mouse at 13 mg/kg,ip measured upto 24 hrs by HPLC-MS/MS analysis; assay type: ADME, organism-based; details: in vivo
[44] = MRT (0 to infinity) in CD-1 mouse at 13 mg/kg,ip measured upto 24 hrs by HPLC-MS/MS analysis; assay type: ADME, organism-based; details: in vivo
[45] = Cmax in CD-1 mouse at 13 mg/kg,ip measured upto 24 hrs by HPLC-MS/MS analysis; assay type: ADME, organism-based; parameters: time < 24 hrs, dose 13 mg/kg, route ip; details: in vivo
[46] = Acute toxicity in C57BL/6 mouse assessed as maximum tolerated dose administered intravenously for 5 consecutive days; details: in vivo, route iv
[47] = Toxicity in Balb/c mouse xenografted with human A549 cells assessed as change in body weight at 50 mg/kg,ip administration measured after 31 days; assay type: organism-based; details: in vivo, 744 h, time 31 day
[48] = tested on: A549; test: Antitumor activity against human A549 cells xenografted in Balb/c mouse assessed as tumor size at 50 mg/kg,ip administration measured after 31 days; assay type: functional; details: time 31 day
[49] = MRT (0 to t) in CD-1 mouse at 13 mg/kg,ip measured upto 24 hrs by HPLC-MS/MS analysis; assay type: ADME, organism-based; details: in vivo

COc1cc2c(c(OC)c1OC)-c1ccc(OC)c(=O)cc1[C@@H](NC(C)=O)CC2 [COLCHICINE]
inhibition [1]: 5.7%
Activity [2]: 24.1%
IC50 [3]: 41 nM
IC50 [4]: 31 nM
IC50 [5]: 79 nM
IC50 at 48 h [6]: 269 nM
IC50 at 48 h [7]: 9200 nM
Activity [8]: 3.6%
IC50 at 48 h [9]: 697 nM
Activity [10]: 93.9%
Activity [11]: 0.1%
Activity [12]: 15.3%
IC50 at 48 h [13]: 9.3 nM
IC50 [14]: 46 nM
viability at 0.05 µM [15]: 57%
IC50 [16]: 75 nM
IC50 [17]: 12.8 nM
IC50 [18]: 18 nM
IC50 at 48 h [19]: 21.8 nM
IC50 [20]: 64 nM

CN1CCN(c2cccc(Nc3nc4c(-c5ccc(S(C)(=O)=O)cc5)cccn4n3)c2)CC1
inhibition [1]: 99%
IC50 [21]: 1140 nM
Activity [22]: 16.6%
IC50 [3]: 730 nM
Activity [23]: 3.5%
IC50 [4]: 961 nM
IC50 [24]: 1260 nM
IC50 [5]: 15100 nM
IC50 at 48 h [6]: 388 nM
IC50 [25]: 6 nM
IC50 at 48 h [7]: 216 nM
IC50 [26]: 394 nM
IC50 at 48 h [9]: 172 nM
half-life [27]: 0.218 h
viability at 0.5 µM [28]: 65.7%
IC50 at 48 h [13]: 2830 nM
IC50 [29]: 3530 nM
IC50 [30]: 1530 nM
IC50 [31]: 289 nM
IC50 [14]: 1230 nM
IC50 [32]: 12 nM
Activity [33]: 2.8%
Activity [34]: 14.9%
IC50 [35]: 5780 nM
IC50 [36]: 372 nM
IC50 [16]: 2040 nM
IC50 [17]: 1550 nM
Activity [37]: 96.5%
IC50 [18]: 5790 nM
IC50 at 48 h [19]: 4930 nM
IC50 [20]: 358 nM

COc1cc(-c2nccc3nc(Nc4cccc5c4ccn5P(=O)([O-])[O-])nn23)cc(OC)c1OC.[Na+].[Na+]
IC50 [3]: 9 nM
AUC(0-t) at 24 h [38]: 850 ng·h/mL
IC50 [24]: 11 nM
half-life [39]: 1.8 h
AUC(0-inf) [40]: 908 ng·h/mL
IC50 [14]: 48 nM
Activity [41]: 91%
Activity [42]: Active
IC50 [36]: 42 nM
Tmax [43]: 6 min
MRT inf [44]: 2.4 h
Cmax [45]: 334 ng/mL
IC50 [20]: 12 nM
MTD at 5 days [46]: 100 mg/kg
Activity [47]: Non-Toxic
Activity [48]: 204.6 mm3
MRT last at 24 h [49]: 1.8 h
